Source: US10883981B2, “Fluorescent fusion polypeptide, encoding nucleic acid, and cell comprising said polypeptide” (priority 2012, dated 2021)
In brackets after ≈: the same amount, converted by molar mass. Blank lines part the entries; values can stand above or below the compound they belong to.

Key:
[1] = tested on: U2OS stably expressing fluorescent DAG biosensor; assay: DAG biosensor fluorescence redistribution (internalization) assay
Procedure: Cellular distribution of DAG biosensor stimulated cells. […] DAG biosensor activity was determined measuring the generation of the vesicle using image analysis algorithms.
As with the previous examples, in order to assess whether the activation of the above mentioned polypeptide induces intracellular fluorescence redistribution in living cells, peptide turboGFP was cloned as the fluorescent peptide and the cellular localization of the biosensor was analysed upon diacylglycerol induced activation. In this sense, U2O2 cell line was stably transfected with the plasmid construction that contains the above mentioned biosensor's coding sequence. […] As with the previous examples, activity was calculated as an increment of granularity by treating these cells with increasing dosages of PMA.

[2] = tested on: HEK293 and U2O2 cells stably transfected with calcium biosensor; assay: Calcium biosensor cellular localization upon calcium induced activation; type: cell-based; conditions: 10 ng/ml of PMA and 1 uM of ionomycin applied together
Text: After transfection, both cell lines presented a membrane distribution of the fluorescence.

[3] = target: human Tachykinin receptor 1 (Neurokinin 1 receptor) (Homo sapiens, UniProt P25103); conditions: 10 uM, 6 hours, U2OS expressing human Neurokinin receptor 1 and calcium biosensor
human Tachykinin receptor 1 (Neurokinin 1 receptor), sequence (P25103 whole entry): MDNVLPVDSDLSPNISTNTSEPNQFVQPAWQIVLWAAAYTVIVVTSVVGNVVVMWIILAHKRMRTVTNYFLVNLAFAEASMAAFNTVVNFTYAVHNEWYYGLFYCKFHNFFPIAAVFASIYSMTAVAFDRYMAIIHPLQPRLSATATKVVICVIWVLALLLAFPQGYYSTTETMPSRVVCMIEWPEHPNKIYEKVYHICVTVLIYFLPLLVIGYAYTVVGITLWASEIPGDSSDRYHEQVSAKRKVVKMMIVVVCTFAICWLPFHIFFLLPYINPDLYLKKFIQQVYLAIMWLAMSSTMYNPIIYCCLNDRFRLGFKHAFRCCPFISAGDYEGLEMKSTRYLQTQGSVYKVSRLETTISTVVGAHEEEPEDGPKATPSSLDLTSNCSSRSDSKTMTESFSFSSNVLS
Procedure: Secondly, in order to determine whether calcium induces a significant conformational change within a physiological dynamic range, the U2O2 biosensor stable cell line was stably transfected with the human Tachykinin receptor 1.
The double stable cell line was seeded at 20,000 cells per well on 96-mm optical plates, and cultured in 200 ul of DMEM F12 supplemented with 10% fetal bovine serum. For fluorescent biosensor redistribution, cells were stimulated with different concentrations of the agonist Substancia P during 6 hours. After treatment, the nucleus was stained with DAPI and biosensor fluorescence redistribution was detected by fluorescence using image analysis algorithms. […] The activity was calculated as an increment of the granularity of these cells. Cells were treated with 11 log dilution series (n=5).

EC50 ([1]; Homo sapiens, U2OS, 4 h, read-out: Ec50, biosensor redistribution (increment of granularity)): 0.000289 ng/mL (≈ 0.00137 nM)
Compound: CC(C)NCC(O)c1ccc(O)c(O)c1 (centres unmarked) [Isoproterenol]

Compound: CCCCCCCCCCCCCC(=O)O[C@@H]1[C@@H](C)[C@@]2(O)[C@@H](C=C(CO)C[C@]3(O)C(=O)C(C)=C[C@@H]23)[C@@H]2C(C)(C)[C@]12OC(C)=O [PMA]
Membrane distribution of calcium biosensor after raising intracellular calcium [2]: substantial decrease in membrane distribution
Cellular distribution of fluorescent DAG biosensor after treatment ([1]; 25 ng/ml, 4 hours, U2OS expressing DAG biosensor): internalized in vesicles in the citosol

Compound: C[C@H](CCC(=O)O)C[C@H](C)C[C@H](C)C(=O)/C=C(\O)[C@H](C)C[C@H](C)C/C=C/[C@@H](C)[C@@H](O)[C@@H](C)[C@@H](O)C[C@@H]1CC[C@@](C)([C@H]2CC[C@@](C)([C@@H](C)O)O2)O1 [ionomycin]
Membrane distribution of calcium biosensor after raising intracellular calcium [2]: substantial decrease in membrane distribution

Compound: Substance P
Cellular distribution of fluorescent calcium biosensor after treatment [3]: internalized in vesicles in the citosol
